In brackets after ≈: the same amount, converted by molar mass.
Legend:
Format in all cases: functional
[1] = tested on: Staphylococcus epidermidis; assay: Enhancement of biofilm formation Staphylococcus epidermidis SW036 at subinhibitory concentration by microtiter plate assay; set-up: scale not given: the % may be the effect or the level left
[2] = tested on: Staphylococcus epidermidis; assay: Enhancement of biofilm formation Staphylococcus epidermidis SW029 expressing icaA gene at subinhibitory concentration by microtiter plate assay; set-up: scale not given: the % may be the effect or the level left
[3] = tested on: Staphylococcus epidermidis; assay: Enhancement of biofilm formation Staphylococcus epidermidis SW045 expressing icaA gene at subinhibitory concentration by microtiter plate assay; set-up: scale not given: the % may be the effect or the level left
[4] = tested on: Staphylococcus epidermidis; assay: Enhancement of biofilm formation Staphylococcus epidermidis SW088 at subinhibitory concentration by microtiter plate assay; set-up: scale not given: the % may be the effect or the level left
[5] = tested on: Staphylococcus epidermidis; assay: Enhancement of biofilm formation Staphylococcus epidermidis SW070 at subinhibitory concentration by microtiter plate assay; set-up: scale not given: the % may be the effect or the level left
[6] = tested on: Staphylococcus epidermidis; assay: Enhancement of biofilm formation Staphylococcus epidermidis SW032 expressing icaA gene at subinhibitory concentration by microtiter plate assay; set-up: scale not given: the % may be the effect or the level left
[7] = tested on: Staphylococcus epidermidis; assay: Enhancement of biofilm formation Staphylococcus epidermidis SW085 expressing icaA gene at subinhibitory concentration by microtiter plate assay; set-up: scale not given: the % may be the effect or the level left
[8] = tested on: Staphylococcus epidermidis; assay: Enhancement of biofilm formation Staphylococcus epidermidis SW126 expressing icaA gene at subinhibitory concentration by microtiter plate assay; set-up: scale not given: the % may be the effect or the level left
[9] = tested on: Staphylococcus epidermidis; assay: Enhancement of biofilm formation Staphylococcus epidermidis SW058 expressing icaA gene at subinhibitory concentration by microtiter plate assay; set-up: scale not given: the % may be the effect or the level left
[10] = tested on: Staphylococcus epidermidis; assay: Enhancement of biofilm formation Staphylococcus epidermidis SW067 expressing icaA gene at subinhibitory concentration by microtiter plate assay; set-up: scale not given: the % may be the effect or the level left
[11] = tested on: Staphylococcus epidermidis; assay: Enhancement of biofilm formation Staphylococcus epidermidis SW120 at subinhibitory concentration by microtiter plate assay; set-up: scale not given: the % may be the effect or the level left
[12] = tested on: Staphylococcus epidermidis; assay: Enhancement of biofilm formation Staphylococcus epidermidis SW104 expressing icaA gene at subinhibitory concentration by microtiter plate assay; set-up: scale not given: the % may be the effect or the level left
[13] = tested on: Staphylococcus epidermidis; assay: Enhancement of biofilm formation Staphylococcus epidermidis SW099 at subinhibitory concentration by microtiter plate assay; set-up: scale not given: the % may be the effect or the level left
[14] = tested on: Staphylococcus epidermidis; assay: Enhancement of biofilm formation Staphylococcus epidermidis SW021 at subinhibitory concentration by microtiter plate assay; set-up: scale not given: the % may be the effect or the level left
[15] = tested on: Staphylococcus epidermidis; assay: Enhancement of biofilm formation Staphylococcus epidermidis SW061 expressing icaA gene at subinhibitory concentration by microtiter plate assay; set-up: scale not given: the % may be the effect or the level left
[16] = tested on: Staphylococcus epidermidis; assay: Enhancement of biofilm formation Staphylococcus epidermidis SW071 at subinhibitory concentration by microtiter plate assay; set-up: scale not given: the % may be the effect or the level left
[17] = tested on: Staphylococcus epidermidis; assay: Enhancement of biofilm formation Staphylococcus epidermidis SW115 at subinhibitory concentration by microtiter plate assay; set-up: scale not given: the % may be the effect or the level left
[18] = tested on: Staphylococcus epidermidis; assay: Enhancement of biofilm formation Staphylococcus epidermidis SW098 expressing icaA gene at subinhibitory concentration by microtiter plate assay; set-up: scale not given: the % may be the effect or the level left
[19] = tested on: Staphylococcus epidermidis; assay: Antimicrobial activity against Staphylococcus epidermidis SW027 expressing icaA gene assessed as enhancement of biofilm formation at subinhibitory concentration by microtiter plate assay; set-up: scale not given: the % may be the effect or the level left
[20] = tested on: Staphylococcus epidermidis; assay: Enhancement of biofilm formation Staphylococcus epidermidis SW082 at subinhibitory concentration by microtiter plate assay; set-up: scale not given: the % may be the effect or the level left
[21] = tested on: Staphylococcus epidermidis; assay: Antimicrobial activity against Staphylococcus epidermidis SW029 expressing icaA gene
[22] = tested on: Staphylococcus epidermidis; assay: Enhancement of biofilm formation Staphylococcus epidermidis SW015 at subinhibitory concentration by microtiter plate assay; set-up: scale not given: the % may be the effect or the level left
[23] = tested on: Staphylococcus epidermidis; assay: Antimicrobial activity against Staphylococcus epidermidis SW036
[24] = tested on: Staphylococcus epidermidis; assay: Enhancement of biofilm formation Staphylococcus epidermidis ATCC 35984 expressing icaA gene at subinhibitory concentration by microtiter plate assay; set-up: scale not given: the % may be the effect or the level left

Compound: CC[C@H]1OC(=O)[C@H](C)[C@@H](O[C@H]2C[C@@](C)(OC)[C@@H](O)[C@H](C)O2)[C@H](C)[C@@H](O[C@@H]2O[C@H](C)C[C@H](N(C)C)[C@H]2O)[C@](C)(OC)C[C@@H](C)C(=O)[C@H](C)[C@@H](O)[C@]1(C)O [CLARITHROMYCIN]
- Activity [1]: 292%
- Activity [2]: 146.4%
- Activity [3]: 32.2%
- Activity [4]: 201.5%
- Activity [5]: 155.6%
- Activity [6]: 71.8%
- Activity [7]: 275.8%
- Activity [8]: 50.3%
- Activity [9]: 54.9%
- Activity [10]: 140.2%
- Activity [11]: 50.6%
- Activity [12]: 51.5%
- Activity [13]: 38.7%
- Activity [14]: 54.6%
- Activity [15]: 46.3%
- Activity [16]: 147.2%
- Activity [17]: 164%
- Activity [18]: 112.8%
- Activity [19]: 62.3%
- Activity [20]: 62.8%
- MIC [21]: > 128 µg/mL
- Activity [22]: 78.6%
- MIC [23]: 16 µg/mL (≈ 21.4 µM)
- Activity [24]: -3.9%

Source: ChEMBL document CHEMBL1671687, “Enhancement of biofilm formation by subinhibitory concentrations of macrolides in icaADBC-positive and -negative clinical isolates of Staphylococcus epidermidis” (2010)
